Test results reported in PubChem BioAssay AID314 (DTP/NCI, 2004).
Several values for one entry are separate records, joined by “and”; a condition that tells them apart may be missing. Equal values may be shown once. Toxic doses and inconclusive results are not listed.

System: DBA/2 mice, P1534 leukemia ip, survival T/C
Assay: NCI In Vivo Anticancer Drug Screen. Data for tumor model P1534 Leukemia (intraperitoneal) in DBA/2 mice
Conditions: endpoint: mean survival time, higher = longer survival
Experimental: The antitumor activity of compounds was measured in mice bearing transplantable tumors. Survival or tumor size were measured and the results are expressed as the measurement made in the treated group (T) divided by the measurement made in the vehicle treated control group (C). The tumor model used in this assay is P1534 Leukemia (intraperitoneal) in DBA/2 mice

[1] = dose: 62.5 mg/kg/injection, schedule: Q01DX010 (ip), vehicle: saline
[2] = dose: 5.0 mg/kg/injection, schedule: Q01DX010 (ip), vehicle: saline
[3] = dose: 10.0 mg/kg/injection, schedule: Q01DX010 (ip), vehicle: saline
[4] = dose: 15.6 mg/kg/injection, schedule: Q01DX010 (ip), vehicle: saline
[5] = dose: 31.3 mg/kg/injection, schedule: Q01DX010 (ip), vehicle: saline
[6] = dose: 125.0 mg/kg/injection, schedule: Q01DX010 (ip), vehicle: saline
[7] = dose: 250.0 mg/kg/injection, schedule: Q01DX010 (ip), vehicle: saline
[8] = dose: 0.13 mg/kg/injection, schedule: Q01DX010 (ip), vehicle: saline
[9] = dose: 0.25 mg/kg/injection, schedule: Q01DX010 (ip), vehicle: saline
[10] = dose: 3.13 mg/kg/injection, schedule: Q01DX010 (ip), vehicle: saline
[11] = dose: 6.25 mg/kg/injection, schedule: Q01DX010 (ip), vehicle: saline
[12] = dose: 12.5 mg/kg/injection, schedule: Q01DX010 (ip), vehicle: saline
[13] = dose: 50.0 mg/kg/injection, schedule: Q01DX010 (ip), vehicle: saline
[14] = dose: 100.0 mg/kg/injection, schedule: Q01DX010 (ip), vehicle: saline
[15] = dose: 8.0 mg/kg/injection, schedule: Q01DX010 (ip), vehicle: saline
[16] = dose: 16.0 mg/kg/injection, schedule: Q01DX010 (ip), vehicle: saline
[17] = dose: 32.0 mg/kg/injection, schedule: Q01DX010 (ip), vehicle: saline
[18] = dose: 64.0 mg/kg/injection, schedule: Q01DX010 (ip), vehicle: saline
[19] = dose: 1.0 mg/kg/injection, schedule: Q01DX010 (ip), vehicle: saline
[20] = dose: 25.0 mg/kg/injection, schedule: Q01DX010 (ip), vehicle: saline
[21] = dose: 4.0 mg/kg/injection, schedule: Q01DX010 (ip), vehicle: saline

CN[C@H]1CCc2cc(OC)c(OC)c(OC)c2-c2ccc(OC)c(=O)cc21
T/C (dose: 0.63 mg/kg/injection, schedule: Q01DX010 (ip), vehicle: other): 111 % of control and 115 % of control
T/C (dose: 1.25 mg/kg/injection, schedule: Q01DX010 (ip), vehicle: other): 100 % of control and 103 % of control

Nc1ncccc1C(=O)O
T/C [1]: 89 % of control

Cn1cnc([N+](=O)[O-])c1Sc1nc(N)nc2nc[nH]c12
T/C (dose: 1.25 mg/kg/injection, schedule: Q01DX010 (ip), vehicle: saline): 100 % of control and 108 % of control
T/C (dose: 2.5 mg/kg/injection, schedule: Q01DX010 (ip), vehicle: saline): 100 % of control and 108 % of control
T/C [2]: 88 % of control
T/C [3]: 88 % of control

O=CN(O)CC(=O)O
T/C [4]: 93 % of control
T/C [5]: 93 % of control
T/C [1]: 96 % of control
T/C [6]: 93 % of control

O=C1CCC(N2C(=O)c3ccccc3C2=O)C(=O)N1 (configuration not stated)
T/C [5]: 100 % of control
T/C [1]: 96 % of control
T/C [6]: 96 % of control
T/C [7]: 96 % of control

O[C@H](CN1CC1)[C@@H](O)CN1CC1
T/C [8]: 88 % of control
T/C [9]: 96 % of control

CCc1c(CC(=O)O)c2cc(C)ccc2n1Cc1ccc(Cl)cc1
T/C [10]: 103 % of control
T/C [11]: 107 % of control
T/C [12]: 103 % of control

O=c1cnn(C2OC(CO)C(O)C2O)c(=O)[nH]1 (configuration not stated)
T/C [13]: 103 % of control and 117 % of control
T/C [14]: 96 % of control and 113 % of control
T/C (dose: 200.0 mg/kg/injection, schedule: Q01DX010 (ip), vehicle: saline): 91 % of control and 108 % of control

O=C(Nc1ccc(C2=NCCN2)cc1)c1cccc(C(=O)Nc2ccc(C3=NCCN3)cc2)c1
T/C [15]: 163 % of control
T/C [16]: 177 % of control
T/C [17]: 240 % of control
T/C [18]: 290 % of control

CN1CCCC1c1cccnc1 (configuration not stated)
T/C [8]: 100 % of control
T/C [9]: 100 % of control
T/C (dose: 0.5 mg/kg/injection, schedule: Q01DX010 (ip), vehicle: saline): 100 % of control
T/C [19]: 100 % of control

O=NN(CCCl)C(=O)NCCCl
T/C (dose: 1.57 mg/kg/injection, schedule: Q01DX010 (ip), vehicle: saline): 100 % of control and 103 % of control
T/C [10]: 103 % of control and 111 % of control
T/C [11]: 100 % of control

COS(C)(=O)=O
T/C [12]: 88 % of control and 100 % of control
T/C [20]: 88 % of control
T/C [13]: 92 % of control

CCOC(C)C(/C=N/NC(N)=S)=NNC(N)=S (configuration not stated)
T/C (dose: 15.0 mg/kg/injection, schedule: Q01DX010 (ip), vehicle: saline): 91 % of control
T/C (dose: 30.0 mg/kg/injection, schedule: Q01DX010 (ip), vehicle: saline): 100 % of control
T/C (dose: 60.0 mg/kg/injection, schedule: Q01DX010 (ip), vehicle: saline): 100 % of control
T/C (dose: 120.0 mg/kg/injection, schedule: Q01DX010 (ip), vehicle: saline): 95 % of control

O=CCC(O)C(O)C(O)CO (configuration not stated)
T/C [6]: 103 % of control
T/C [7]: 92 % of control and 107 % of control
T/C (dose: 500.0 mg/kg/injection, schedule: Q01DX010 (ip), vehicle: saline): 107 % of control and 115 % of control

CCOC(=O)NP(=O)(N1CC1(C)C)N1CC1(C)C (configuration not stated)
T/C [5]: 107 % of control
T/C [1]: 92 % of control
T/C [6]: 103 % of control

CSc1ncnc2c1ncn2C1OC(CO)C(O)C1O (configuration not stated)
T/C [21]: 100 % of control
T/C [15]: 100 % of control
T/C [16]: 96 % of control and 100 % of control

N=C(N)c1ccc(Nc2ccc(C(=N)N)cc2)cc1
T/C (dose: 6.0 mg/kg/injection, schedule: Q01DX010 (ip), vehicle: saline): 96 % of control
T/C (dose: 12.0 mg/kg/injection, schedule: Q01DX010 (ip), vehicle: saline): 89 % of control and 100 % of control

CN(C)/N=N/c1nc[nH]c1C(N)=O
T/C [20]: 96 % of control
T/C [13]: 90 % of control
T/C [14]: 86 % of control

Nc1nc(=S)c2ncn(C3OC(CO)C(O)C3O)c2[nH]1 (configuration not stated)
T/C [9]: 110 % of control
T/C [19]: 96 % of control
T/C (dose: 2.0 mg/kg/injection, schedule: Q01DX010 (ip), vehicle: saline): 89 % of control

CN(C)Cc1c[nH]c2ccccc12
T/C [4]: 100 % of control
T/C [5]: 100 % of control

NC(=O)c1ccc(N)nc1
T/C (dose: 3.0 mg/kg/injection, schedule: Q01DX010 (ip), vehicle: saline): 90 % of control

CCCCCC(=O)O[C@]1(C(C)=O)CC[C@H]2[C@@H]3CCC4=CC(=O)CC[C@]4(C)[C@H]3CC[C@@]21C
T/C (dose: 250.0 mg/kg/injection, schedule: Q01DX010 (sc), vehicle: steriod suspending solution): 103 % of control
T/C (dose: 375.0 mg/kg/injection, schedule: Q01DX010 (sc), vehicle: steriod suspending solution): 100 % of control
T/C (dose: 500.0 mg/kg/injection, schedule: Q01DX010 (sc), vehicle: steriod suspending solution): 100 % of control
T/C (dose: 750.0 mg/kg/injection, schedule: Q01DX010 (sc), vehicle: steriod suspending solution): 107 % of control

CC1CCOS(=O)O1 (configuration not stated)
T/C [3]: 92 % of control
T/C (dose: 20.0 mg/kg/injection, schedule: Q01DX010 (ip), vehicle: saline): 92 % of control

CO[C@H]1C[C@H](O[C@H]2CC[C@]3(C=O)[C@H]4CC[C@]5(C)[C@@H](C6=CC(=O)OC6)CC[C@]5(O)[C@@H]4CC[C@]3(O)C2)O[C@H](C)[C@H]1O
T/C (dose: 1.25 mg/kg/injection, schedule: Q01DX010 (sc), vehicle: saline): 92 % of control
T/C (dose: 2.5 mg/kg/injection, schedule: Q01DX010 (sc), vehicle: saline): 103 % of control
T/C (dose: 5.0 mg/kg/injection, schedule: Q01DX010 (sc), vehicle: saline): 92 % of control
T/C (dose: 10.0 mg/kg/injection, schedule: Q01DX010 (sc), vehicle: saline): 89 % of control

OC(CBr)C(O)C(O)C(O)CBr (configuration not stated)
T/C [14]: 100 % of control

CC(=O)[C@H]1CC[C@H]2[C@@H]3C[C@H](C)C4=CC(=O)CC[C@]4(C)[C@H]3C(=O)C[C@]12C
T/C (dose: 6.25 mg/kg/injection, schedule: Q01DX010 (sc), vehicle: steriod suspending solution): 100 % of control
T/C (dose: 12.5 mg/kg/injection, schedule: Q01DX010 (sc), vehicle: steriod suspending solution): 107 % of control
T/C (dose: 25.0 mg/kg/injection, schedule: Q01DX010 (sc), vehicle: steriod suspending solution): 103 % of control
T/C (dose: 50.0 mg/kg/injection, schedule: Q01DX010 (sc), vehicle: steriod suspending solution): 107 % of control

CC[C@]1(O)C[C@H]2CN(CCc3c([nH]c4ccccc34)[C@@](C(=O)OC)(c3cc4c(cc3OC)N(C=O)[C@H]3[C@@](O)(C(=O)OC)[C@H](OC(C)=O)[C@]5(CC)C=CCN6CC[C@]43[C@@H]65)C2)C1
T/C (dose: 15.6 micrograms/kg/injection, schedule: Q01DX010 (ip), vehicle: saline): 117 % of control
T/C (dose: 31.3 micrograms/kg/injection, schedule: Q01DX010 (ip), vehicle: saline): 114 % of control

CN(C)c1nc(N(C)C)nc(N(C)C)n1
T/C (dose: 9.4 mg/kg/injection, schedule: Q01DX010 (ip), vehicle: saline): 103 % of control and 111 % of control
T/C (dose: 150.0 mg/kg/injection, schedule: Q01DX010 (ip), vehicle: saline): 103 % of control and 107 % of control

C[C@]12CCC(=O)C[C@H]1CC[C@@H]1[C@@H]2CC[C@@]2(C)[C@H]1CC[C@]2(C)O
T/C (dose: 50.0 mg/kg/injection, schedule: Q01DX010 (sc), vehicle: saline): 104 % of control
T/C (dose: 100.0 mg/kg/injection, schedule: Q01DX010 (sc), vehicle: saline): 100 % of control
T/C (dose: 200.0 mg/kg/injection, schedule: Q01DX010 (sc), vehicle: saline): 100 % of control
T/C (dose: 400.0 mg/kg/injection, schedule: Q01DX010 (sc), vehicle: saline): 108 % of control

C1CCNC1
T/C (dose: 0.19 mg/kg/injection, schedule: Q01DX010 (ip), vehicle: saline): 93 % of control
T/C (dose: 0.39 mg/kg/injection, schedule: Q01DX010 (ip), vehicle: saline): 86 % of control
T/C (dose: 1.56 mg/kg/injection, schedule: Q01DX010 (ip), vehicle: saline): 96 % of control

CCNc1nncs1
T/C [4]: 100 % of control
T/C [5]: 100 % of control

C=C(C(=O)OC1CC2CCC(C1)N2C)c1ccccc1 (configuration not stated)
T/C [2]: 100 % of control

COC(=O)c1[nH]c(=O)[nH]c(=O)c1F
T/C [19]: 103 % of control
T/C [21]: 93 % of control

CC[n+]1c(-c2ccccc2)c2cc(N)ccc2c2ccc(N)cc21
T/C [2]: 113 % of control
T/C [3]: 120 % of control

CCCCn1cnc2c(=S)nc[nH]c21
T/C [17]: 96 % of control
T/C [18]: 92 % of control and 96 % of control
T/C (dose: 128.0 mg/kg/injection, schedule: Q01DX010 (ip), vehicle: saline): 96 % of control and 100 % of control
